Experimental findings from patent US20070082914A1, “4-(4-Methylpiperazin-1-ylmethyl)-n-[4-methyl-3-(4-pyridin-3-yl)pyrimidin-2-ylamino)phenyl]-benzamide for treating pulmonary fibrosis” (priority 2002, published 2007) are described below.

Structures are written as SMILES. Counter-ions that a name gives are not always drawn.

The test system of this experiment is Asbestos-Exposed Mice. Briefly: Asbestos-exposed mice: morphometric analysis of first alveolar duct bifurcations. The format is in vivo. The note with it: asbestos-exposed C57BL/6 mice, 30 days following exposure. On the procedure: Asbestos Exposure: Eight week old C57BL/6 mice are exposed to 15 mg/m^3 of chrysotile asbestos in inhalation chambers for a period of 5 hours, for 3 consecutive days, as described previously in detail in our earlier publications (Lasky et al. Am. J. Respir. Crit. Care Med. (1998) 157:1652-7). This asbestos exposure induces fibroblast proliferation and a morphometrically characterized lesion at the alveolar duct bifurcations (Brody et al., Am Rev Respir Dis. (1981) 123:670-9). Sham-exposed (ambient air) animals are used as controls. The groups include: sham-exposed with vehicle; asbestos-exposed with vehicle; and asbestos exposed with COMPOUND I (imatinib mesylate). Five mice from each of these […] are sacrificed 30 days following exposure and used for determining the dimensions of the alveolar duct bifurcations. […]
Morphometric Analysis: H & E stained sections from exposed and control animals from the 30 day time point are masked. Bifurcation area is measured using an Olympus microscope with a video camera interfacing with a PC utilizing V150 imaging software (Fermin et al., J Anat. (1995) 186:469-81). The total area and perimeter of each of five first alveolar duct bifurcations is measured as previously described (Perdue et al., J. Histochem. Cytochem. (1994) 42:1061-70). […]

As to `Cc1ccc(NC(=O)c2ccc(CN3CCN(C)CC3)cc2)cc1Nc1nccc(-c2cccnc2)n1` [SALT I, 4[-(4-methyl-1-piperazin-1-ylmethyl)-N-[4-methyl-3-[[4-(3-pyridinyl)-2-pyrimidinyl]amino]phenyl]benzamide methanesulfonate], the “First alveolar duct area” value (100 mg COMPOUND I free base/kg i.p. once per day, from the day preceding exposure and for 14 days thereafter, group mean) came out at 1875 square micrometers. Also, the “reduction of the size of the lesion (fibrotic scar at first alveolar duct bifurcations)” value (100 mg free base/kg i.p. once per day, P=0.02) was 43%.
